Assay [1] addresses human Fatty Acid Amide Hydrolase (FAAH) (Homo sapiens (Human), UniProt O00519). The experiment in a line: biochemical.
Assay [2] concerns the target rat Fatty Acid Amide Hydrolase (FAAH) (Rattus norvegicus (Rat), UniProt P97612). The experiment in a line: FAAH in vitro fluorescence assay (AAMCA hydrolysis), rat enzyme. Format: biochemical. The gist of the method: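 Rat FAAH, E. coli-expressed with groEL-groES chaperone, used as enriched membrane extract with 10 μM AAMCA in 50 mM HEPES, 1 mM EDTA, 0.1% BSA, pH 7.4 (1% DMSO final).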

[3] abbreviates: human FAAH, read-out: hFAAH IC50.

Our source for the IC50 and inhibition values is patent publication US9682953B2, “Amide compounds, compositions and applications thereof” (Advinus Therapeutics Limited, priority 2011, dated 2017).

SMILES strings stand for the structures. Like-named read-outs stand apart in the source and are kept apart here.

human Fatty Acid Amide Hydrolase (FAAH), sequence (O00519 30-579): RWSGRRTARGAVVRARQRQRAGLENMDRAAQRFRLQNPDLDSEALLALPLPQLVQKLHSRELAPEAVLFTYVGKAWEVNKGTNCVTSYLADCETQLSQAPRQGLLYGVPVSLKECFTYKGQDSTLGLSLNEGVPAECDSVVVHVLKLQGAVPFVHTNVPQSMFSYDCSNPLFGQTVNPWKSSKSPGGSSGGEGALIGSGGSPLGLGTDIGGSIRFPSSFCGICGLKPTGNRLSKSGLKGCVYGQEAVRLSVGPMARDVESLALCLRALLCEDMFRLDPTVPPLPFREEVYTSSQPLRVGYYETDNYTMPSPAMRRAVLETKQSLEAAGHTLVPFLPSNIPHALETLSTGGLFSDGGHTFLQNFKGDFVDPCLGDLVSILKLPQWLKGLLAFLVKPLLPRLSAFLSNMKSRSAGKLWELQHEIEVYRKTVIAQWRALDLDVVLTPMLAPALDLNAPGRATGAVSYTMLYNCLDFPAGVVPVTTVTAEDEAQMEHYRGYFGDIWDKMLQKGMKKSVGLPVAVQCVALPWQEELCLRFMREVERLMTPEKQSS
rat Fatty Acid Amide Hydrolase (FAAH), sequence (P97612 30-579): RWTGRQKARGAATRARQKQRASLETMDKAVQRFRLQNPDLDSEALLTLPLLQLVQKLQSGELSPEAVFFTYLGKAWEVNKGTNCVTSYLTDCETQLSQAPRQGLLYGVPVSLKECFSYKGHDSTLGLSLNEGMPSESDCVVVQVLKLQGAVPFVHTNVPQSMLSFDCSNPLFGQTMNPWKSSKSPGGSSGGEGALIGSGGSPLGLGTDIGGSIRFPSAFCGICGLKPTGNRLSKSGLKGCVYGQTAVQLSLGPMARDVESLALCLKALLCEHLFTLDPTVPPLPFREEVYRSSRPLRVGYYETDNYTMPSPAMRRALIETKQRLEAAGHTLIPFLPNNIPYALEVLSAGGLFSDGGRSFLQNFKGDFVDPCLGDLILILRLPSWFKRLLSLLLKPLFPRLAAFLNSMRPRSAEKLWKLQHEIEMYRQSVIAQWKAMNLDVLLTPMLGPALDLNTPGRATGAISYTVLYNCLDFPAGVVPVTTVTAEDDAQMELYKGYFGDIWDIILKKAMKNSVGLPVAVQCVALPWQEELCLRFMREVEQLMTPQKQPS

As to `Cc1nc(Oc2cccc(C=C3CCC(NC(=O)c4cnc(N)nc4)CC3)c2)ccc1C(F)(F)F` (stereo not shown) [Example 2.E-22, 2-Amino-N-[4-[[3-[[6-methyl-5-(trifluoromethyl)-2-pyridyl]oxy]phenyl]methylene]cyclohexyl]pyrimidine-5-carboxamide], the IC50 in assay [1] (setting [3]) was determined as 2 nM; in assay [2] (rat FAAH, read-out: rFAAH IC50) it was 21 nM.

Turning to `O=C(NC1CCC(=Cc2cccc(Oc3ccc(C(F)(F)F)cn3)c2)CC1)c1ccc(-c2cc[nH]n2)nc1` (stereo not shown) [Example 2.B-4, 6-(1H-Pyrazol-3-yl)-N-[4-[[3-[[5-(trifluoromethyl)-2-pyridyl]oxy]phenyl]methylene]cyclohexyl]pyridine-3-carboxamide], the half-inhibitory concentration (IC50) in assay [1] (setting [3]) worked out at 2 nM; in assay [2] (rat FAAH, read-out: rFAAH IC50), 11 nM.

Regarding `O=C(NC1CCC(=Cc2cccc(Oc3ccc(C(F)(F)F)cn3)c2)CC1)c1cncc(O)c1` (stereo not shown) [Example 2.C-4, 5-Hydroxy-N-[4-[[3-[[5-(trifluoromethyl)-2-pyridyl]oxy]phenyl]methylene]cyclohexyl]pyridine-3-carboxamide], the IC50 in assay [1] (setting [3]) was 4 nM; in assay [2] (rat FAAH, read-out: rFAAH IC50), 21 nM.

On to `O=C(NC1CCC(=Cc2cccc(Oc3ccc(C(F)(F)F)cn3)c2)CC1)c1ccccn1` (stereo not shown) [Example 2.A-4, N-[4-[[3-[[5-(Trifluoromethyl)-2-pyridyl]oxy]phenyl]methylene]cyclohexyl]pyridine-2-carboxamide], for which the IC50 in assay [1] (setting [3]) worked out at 508 nM. In addition, the inhibition at 30 µM in assay [2] (read-out: rFAAH % inhibition at 30 uM, rat FAAH, 30 uM) is 70%.

Turning to `O=C(NC1CCC(=Cc2cccc(Oc3ccc(C(F)(F)F)cn3)c2)CC1)c1cccnn1` (stereo not shown) [Example 2.A-11, N-[4-[[3-[[5-(Trifluoromethyl)-2-pyridyl]oxy]phenyl]methylene]cyclohexyl]pyridazine-3-carboxamide], the IC50 in assay [1] (read-out: hFAAH IC50) worked out at 11 nM; in assay [2] (rat FAAH, read-out: rFAAH IC50), 194 nM.

Regarding `Cc1cc(C(=O)NC2CCC(=Cc3cccc(Oc4ccc(Cl)c(C)n4)c3)CC2)cnc1N` (stereo not shown) [Example 2.E-25, 6-Amino-N-[4-[[3-[(5-chloro-6-methyl-2-pyridyl)oxy]phenyl]methylene]cyclohexyl]-5-methyl-pyridine-3-carboxamide], the IC50 in assay [1] (setting [3]) amounted to 7 nM; in assay [2] (rat FAAH, read-out: rFAAH IC50), 32 nM.

For `Nc1ccc(C(=O)NC2CCC(=Cc3cccc(Oc4ccc(C(F)(F)F)cn4)c3)CC2)cn1` (single isomer, unassigned; (+)) [Example 20.A-3, (+)-6-Amino-N-[4-[[3-[[5-(trifluoromethyl)-2-pyridyl]oxy]phenyl]methylene]cyclohexyl]pyridine-3-carboxamide], the IC50 in assay [1] (read-out: hFAAH IC50) came out at 361 nM. In addition, the inhibition at 10 µM in assay [2] (read-out: rFAAH % inhibition at 10 uM, rat FAAH, 10 uM) worked out at 70%.

For the compound `O=C(NC1CCC(=Cc2cccc(Oc3ccc(C(F)(F)F)cn3)c2)CC1)c1cnc2[nH]ccc2c1` (single isomer, unassigned; (+)) [Example 20.A-13, (+)-N-[4-[[3-[[5-(trifluoromethyl)-2-pyridyl]oxy]phenyl]methylene]cyclohexyl]-1H-pyrrolo[2,3-b]pyridine-5-carboxamide], the IC50 in assay [1] (read-out: hFAAH IC50) is 55 nM; in assay [2] (rat FAAH, read-out: rFAAH IC50), 407 nM.

For `O=C(NC1CCC(=Cc2cccc(Oc3ccc(C(F)(F)F)cn3)c2)CC1)c1ccc(NC2CC2)nc1` (stereo not shown) [Example 5.A-10, 6-(Cyclopropylamino)-N-[4-[[3-[[5-(trifluoromethyl)-2-pyridyl]oxy]phenyl]methylene]cyclohexyl]pyridine-3-carboxamide], the IC50 came out at 25 nM in assay [1] (setting [3]) and 74 nM in assay [2] (rat FAAH, read-out: rFAAH IC50).

On to `Nc1ncc(C(=O)NC2CCC(=Cc3cccc(Oc4ccc(C(F)(F)F)cn4)c3)CC2)cc1Cl` (stereo not shown) [Example 4.A-3, 6-Amino-5-chloro-N-[4-[[3-[[5-(trifluoromethyl)-2-pyridyl]oxy]phenyl]methylene]cyclohexyl]pyridine-3-carboxamide], for which the IC50 in assay [1] (hFAAH IC50) stood at 3 nM; in assay [2] it was 16 nM.

Take `N#Cc1nc(Oc2cccc(C=C3CCC(NC(=O)c4ccc(N)nc4)CC3)c2)ccc1C(F)(F)F` (stereo not shown) [Example 2.E-28, 6-Amino-N-[4-[[3-[[6-cyano-5-(trifluoromethyl)-2-pyridyl]oxy]phenyl]methylene]cyclohexyl]pyridine-3-carboxamide]: the IC50 in assay [1] (setting [3]) came out at 6 nM; in assay [2] (rat FAAH, read-out: rFAAH IC50), 75 nM.

On to `O=C(NC1CCC(=Cc2cccc(Oc3ccc(C(F)(F)F)cn3)c2)CC1)c1cncnc1` (stereo not shown) [Example 2.A-12, N-[4-[[3-[[5-(Trifluoromethyl)-2-pyridyl]oxy]phenyl]methylene]cyclohexyl]pyrimidine-5-carboxamide], for which the IC50 in assay [1] (read-out: hFAAH IC50) amounted to 3 nM; in assay [2] (rat FAAH, read-out: rFAAH IC50) it was 100 nM.

Consider `O=C(NC1CCC(=Cc2cccc(Oc3ccc(C(F)(F)F)cn3)c2)CC1)c1c[nH]c2ccccc12` [Example 2.D-6, N-[4-[[3-[[5-(Trifluoromethyl)-2-pyridyl]oxy]phenyl]methylene]cyclohexyl]-1H-indole-3-carboxamide], for which the IC50 was 10 nM in assay [1] (read-out: hFAAH IC50) and 87 nM in assay [2] (rat FAAH, read-out: rFAAH IC50).

As for `Nc1ccc(C(=O)NC2CCC(=Cc3cccc(Oc4ccc(C(F)(F)F)c(Cl)n4)c3)CC2)cn1` (stereo not shown) [Example 2.E-20, 6-Amino-N-[4-[[3-[[6-chloro-5-(trifluoromethyl)-2-pyridyl]oxy]phenyl]methylene]cyclohexyl]pyridine-3-carboxamide], the IC50 worked out at 3 nM in assay [1] (setting [3]) and 71 nM in assay [2] (rat FAAH, read-out: rFAAH IC50).
